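Method: 48-hour compound exposure of cells in 96-well plates, five concentrations, linear interpolation of endpoints. TGI marks complete inhibition of growth.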
Key:
Assay in all cases: inhibition of tumour cell growth, NCI panel, 48 h
[1] = test system: HS 578T breast
[2] = test system: HOP-92 NSCLC
[3] = test system: NCI/ADR-RES ovarian
[4] = test system: IGROV1 ovarian
[5] = test system: SF-268 CNS
[6] = test system: SK-MEL-5 melanoma
[7] = test system: RPMI-8226 leukemia
[8] = test system: K-562 leukemia
[9] = test system: SF-539 CNS
[10] = test system: CCRF-CEM leukemia
[11] = test system: NCI-H522 lung

SMILES	TGI [1] [µM]	TGI [2] [µM]	TGI [3] [µM]	TGI [4] [µM]	TGI [5] [µM]	TGI [6] [µM]	TGI [7] [µM]	TGI [8] [µM]	TGI [9] [µM]	TGI [10] [µM]	TGI [11] [µM]
CCCCOC(=O)NC(Nc1cccc(C(F)(F)F)c1)(C(F)(F)F)C(F)(F)F	> 100	64.7	> 100	> 100	> 100	> 100	61.5	> 100	> 100	> 100	> 100
NC(=O)NC(=O)c1cccc(CNc2ccc(C(=O)N[C@@H](CCC(=O)O)C(=O)O)cc2)n1	> 100	> 100	> 100	> 100	> 100	> 100	> 100	> 100	> 100		> 100
O=C(CCCNc1nc(-c2ccccc2)cs1)c1cccs1	> 100		> 100	> 100	> 100	> 100	> 100	> 100	> 100		> 100
CN(C)Cc1cc(C(C)(C)C)ccc1-c1ccc(C(C)(C)C)cc1CN(C)C	> 100	> 100	> 100	> 100	> 100	> 100	> 100	> 100	> 100	> 100	> 100
COC(C(=O)C(O)C(C)O)C1CC2C=C3C=C(OC4CC(OC5CC(O)C(OC)C(C)O5)C(OC(C)=O)C(C)O4)C(C)C(=O)C3=C(O)C2=C(O)C1OC1CC(OC2CC(OC3CC(C)(O)C(OC(=O)C(C)C)C(C)O3)C(O)C(C)O2)C(O)C(C)O1 (stereo not drawn)	< 0.01		0.425	> 100	< 0.01	< 0.01	< 0.01	< 0.01	< 0.01		< 0.01
COP(=O)(Cc1ccccc1)Cc1ccccc1	> 100		> 100	> 100	> 100	> 100	> 100	> 100	> 100	> 100	> 100
CC=CCOc1cc(NC(=S)OC(C)C)ccc1Cl (mixture of isomers)	43.9	24.9	31.9	43.2	37.9	33.1	> 100		36.1	64.3	28
O=C(Nc1c(C(F)(F)F)cc(-c2ccccc2)[nH]c1=O)N1CCOCC1	> 100	> 100	> 100	> 100	> 100	> 100	> 100	> 100		> 100	> 100
Cc1ccc2c(sc(-c3ccc4c(c3)sc(-c3ccc5c(c3)sc(-c3ccc(N(C)C)cc3)[n+]5C)[n+]4C)[n+]2C)c1S(=O)(=O)O (tested in a mixture with another compound)	> 100	> 100	> 100	> 100	> 100	> 100	> 100	> 100	> 100		> 100
O=C1NC(N2CCCCC2)=N/C1=C\c1cccs1	> 100	> 100	> 100	> 100	> 100		> 100		> 100	> 100	> 100
N#CC(C#N)=C(N)/C(C#N)=C/c1ccc2ccccc2n1	65	> 100	> 100	38.2	> 100	51	> 100	> 100		> 100	
C/C1=C/C(C)CC(C)OC(=O)C(C)NC(=O)C(Cc2ccc(O)c(I)c2)N(C)C(=O)C(C)NC(=O)C(C)C1 (stereo not drawn)	< 0.0392	0.0259	24.4	< 0.01	0.347	11.7	10.1	> 40.8	1.61		0.649
CC1(C)CC23CC(C)(C)c4cccc(c42)OCc2ccc4ccc5ccc(nc5c4n2)COc2cccc1c23	> 50	> 50	> 50	> 50	> 50	> 50	> 50	> 50	> 50		> 50
Cc1cccc(CC(Cc2c(C)cccc2C(=O)O)C(=O)O)c1 (stereo not drawn)	> 100		> 100	> 100	> 100	37.2	> 100	> 100	> 100	> 100	> 100
CCCCSC1=N/C(=C\c2ccc(N(C)C)cc2)C(NN)=N1	> 100	> 100	> 100	> 100	> 100		> 100	> 100		> 100	> 100
CC1=CCC2C3(C)CCC2(C(C)C)C1C3 (stereo not drawn) (tested in a mixture with another compound)	38.2	58.3	37.7	35.1	36.1		56.7	99	87.4	56.9	39.3
Cc1ccc(N=N/C(=N/NC(=O)c2cc(Cl)ccc2C(=O)c2ccccc2)c2ccc(N(CCC#N)CCC#N)cc2C)cc1	> 100		62.1	41.3	> 100	33.6	96.9	> 100		13.1	19.9
C=C(C)CC1(O)C(=O)C(OCC)=C1OCC (stereo not drawn)	> 100	> 100	> 100	> 100	> 100	> 100			> 100	> 100	> 100
CCOC(=O)c1sc(N/N=C2\NC(=O)/C(=C/c3ccc([N+](=O)[O-])cc3)S2)nc1C	> 100	44.6	66.1	35.4	> 100	31			40.7	35.4	40.9
Cc1ccc(S(=O)(=O)N2C[C@](O)(c3ccccc3)[C@H]2C)cc1	> 100	> 100	> 100	> 100	> 100	> 100			> 100	> 100	> 100
